Source: US20040242650A1, “Extended dosing regimen” (priority 2003, published 2004)
Marks after values point to notes of the source that are not given here.

Columns and labels:
[1] = system: HT-29 colon subcutaneous flank xenografts; experiment: HT-29 flank xenograft model; assay type: in vivo, nude mice; conditions: q.d x5; for Tumor Volume Day 38: mean ± SEM; for % ILS: median, time to 1 cc vs vehicle; for % T/C Day 38: treated vs vehicle
Protocol: (§1) Efficacy of N-[2-[(4-hydroxyphenyl)amino]-3-pyridyl]-4-methoxybenzenesulfonamide was tested in Calu-6 NSCL, MDA-MB-468 breast and HT-29 colon carcinoma xenografts grown in nude mice. The objectives were determination of the efficacy of N-[2-[(4-hydroxyphenyl)amino]-3-pyridyl]-4-methoxybenzenesulfonamide as a single agent and in combination with cisplatin in the Calu-6 NSCL flank xenograft model; determination the efficacy of N-[2-[(4-hydroxyphenyl)amino]-3-pyridyl]-4-methoxybenzenesulfonamide as a single agent and in combination with docetaxel in the MDA-MB 468 breast flank xenograft model; determination of the efficacy of N-[2-[(4-hydroxyphenyl)amino]-3-pyridyl]-4-methoxybenzenesulfonamide as a single agent and in combination with 5-FU in the HT-29 colon flank xenograft model; and comparison the efficacy of N-[2-[(4-hydroxyphenyl)amino]-3-pyridyl]-4-methoxybenzenesulfonamide administered on 2 different schedules (q.d. vs b.i.d.) in the Calu-6 and HT-29 xenogaft model.
(§2) Following inoculation of tumor cells, tumors were passaged three times in mice before using the fragments to generate single cell suspensions. Multiple animals were used as donors. Single cell suspensions were generated by homogenizing the minced tumor tissue in RPMI 1640 media. Cell suspensions were washed three times to remove debris and other foreign materials. Viable cells were counted by trypan blue exclusion technique using a hemocytometer. Mice were injected subcutaneously with 0.5 ml of the cell suspension containing 1×10^6 cells.
(§3) Tumor cells derived from serially passaged tumor fragments were inoculated s.c. in female nude mice on day 0. On day 10, mice bearing established tumors were size matched at ˜236 mm^3 and placed into the following groups:
1. N-[2-[(4-hydroxyphenyl)amino]-3-pyridyl]-4-methoxybenzenesulfonamide—100, and 75 mg/kg/day (p.o., q.d., 5 days on, 5 days off ×2)
2. N-[2-[(4-hydroxyphenyl)amino]-3-pyridyl]-4-methoxybenzenesulfonamide—50 and 0 mg/kg/day (p.o., q.d. ×21 or p.o., b.i.d. ×21)
Combination Therapy—100/30, 75/30, mg/kg/day (p.o., q.d., 5 days on, 5 days off ×2/ip, qd ×1), 50/10 mg/kg/day (p.o., q.d., ×21/ip, qd ×1).

[2] = system: Calu-6 lung subcutaneous flank xenografts; experiment: Calu-6 flank xenograft model; assay type: in vivo, male nude mice; conditions: q.d x1; for Tumor Volume Day 38: mean ± SEM; for % ILS: median, time to 1 cc vs vehicle; for % T/C Day 38: treated vs vehicle
Protocol: as §1, §2
Tumor cells were inoculated s.c. into male nude mice on day 0. On day 10, mice bearing established tumors were size matched at ˜233 mm^3 and placed into the following groups:
(§4) N-[2-[(4-hydroxyphenyl)amino]-3-pyridyl]-4-methoxybenzenesulfonamide—100, and 75 mg/kg/day (p.o., q.d., 5 days on, 5 days off ×2)
N-[2-[(4-hydroxyphenyl)amino]-3-pyridyl]-4-methoxybenzenesulfonamide—50 and 0 mg/kg/day (p.o., q.d. ×21 or p.o., b.i.d. ×21)
Cisplaitn—20, 10, 8 and 0 mg/kg/day (ip, qd ×1)
Combination Therapy—100/10, 75/10, 100/8 mg/kg/day (p.o., q.d., 5 days on, 5 days off ×2/ip, qd ×1), 50/10 mg/kg/day (p.o., q.d., ×21/ ip, qd ×1)

[3] = system: MDA-MB-468 breast subcutaneous flank xenografts; experiment: MDA-MB-468 breast flank xenograft model; assay type: in vivo, female nude mice; conditions: q.d x1; for Tumor Volume Day 38: mean ± SEM; for % ILS: median, time to 1 cc vs vehicle; for % T/C Day 38: treated vs vehicle
Protocol: as §1, §2
as §3, with “Efficacy of N-[2-[(4-hydroxyphenyl)amino]-3-pyridyl]-4-methoxybenzenesulfonamide in the MDA-MB-468 Breast Flank Xenograft Model. Tumor” for “Tumor”, “˜231” for “˜236”
as §4
N-[2-[(4-hydroxyphenyl)amino]-3-pyridyl]-4-methoxybenzenesulfonamide—50 and 0 mg/kg/day (p.o., q.d. ×21)
Docetaxel—40, 33.3, 16.7 and 0 mg/kg/day (i.v., qd ×1)

## O=c1[nH]cc(F)c(=O)[nH]1 [5-FU, 5-fluorouracil, reference compound]
[1]; 20 mg/kg/day i.p.
  Tumor Volume Day 38: 1413 ± 80 mm^3
  % ILS: 25*** %
  % T/C Day 38: 59*** %
[1]; 30 mg/kg/day i.p.
  Tumor Volume Day 38: 525 ± 35 mm^3
  % ILS: 75*** %
  % T/C Day 38: 22*** %
[1]; 40 mg/kg/day i.p.
  Tumor Volume Day 38: 973 ± 45 mm^3
  % ILS: 50*** %
  % T/C Day 38: 41*** %

## N.N.[Cl][Pt][Cl] [Cisplatin, cisplatin, reference compound]
[2]; 8 mg/kg/day i.p.
  Tumor Volume Day 38: 1649 ± 67 mm^3
  % ILS: 29*** %
  % T/C Day 38: 63*** %
[2]; 10 mg/kg/day i.p.
  Tumor Volume Day 38: 914 ± 49 mm^3
  % ILS: 71*** %
  % T/C Day 38: 35*** %
[2]; 20 mg/kg/day i.p.
  Tumor Volume Day 38: 1472 ± 75 mm^3
  % ILS: 58*** %
  % T/C Day 38: 56*** %

## CC(=O)O[C@@]12CO[C@@H]1C[C@H](O)[C@@]1(C)C(=O)[C@H](O)C3=C(C)[C@@H](OC(=O)[C@H](O)[C@@H](NC(=O)OC(C)(C)C)c4ccccc4)C[C@@](O)([C@@H](OC(=O)c4ccccc4)[C@H]21)C3(C)C [Docetaxel, docetaxel, reference compound]
[3]; 16.7 mg/kg/day i.v.
  Tumor Volume Day 38: 1909 ± 101 mm^3
  % ILS: 26*** %
  % T/C Day 38: 68*** %
[3]; 33.3 mg/kg/day i.v.
  Tumor Volume Day 38: 551 ± 31 mm^3
  % ILS: 67*** %
  % T/C Day 38: 19*** %
[3]; 40 mg/kg/day i.v.
  Tumor Volume Day 38: 1008 ± 58 mm^3
  % ILS: 52*** %
  % T/C Day 38: 36*** %
